Measured values reported in US10265310B2, “6-membered cyclic amines or lactames substituted with urea and phenyl” (GRÜNENTHAL GMBH, priority 2016, dated 2019).

Key:
FPR1 = FPR1 (Homo sapiens (Human), UniProt P21462); experiment: Agonistic activity (calcium FLIPR) in hFPR1-Gα15-CHO cells; assay type: cell-based; conditions: FLIPR Calcium 5 dye fluorescence, agonistic response
Summary of the method: (§1)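 CHO cells expressing hFPR1-Gα15 or hFPR2-Aq were plated 18 hours, then loaded with Calcium 5 dye (pH 7.4, probenecid) for 30 minutes at 37° C. Compounds (final 10 μM to 100 pM, 11 half-log points) were added on FLIPR, with fluorescence followed for 5 minutes. EC50 came from the rise over basal relative to no-compound wells.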

FPR2 = FPR2 (Homo sapiens (Human), UniProt P25090); experiment: Agonistic activity (calcium FLIPR) in hFPR2-Aq-CHO cells; assay type: cell-based; conditions: FLIPR Calcium 5 dye fluorescence, agonistic response
Summary of the method: as §1

FPR1, sequence (P21462 whole entry): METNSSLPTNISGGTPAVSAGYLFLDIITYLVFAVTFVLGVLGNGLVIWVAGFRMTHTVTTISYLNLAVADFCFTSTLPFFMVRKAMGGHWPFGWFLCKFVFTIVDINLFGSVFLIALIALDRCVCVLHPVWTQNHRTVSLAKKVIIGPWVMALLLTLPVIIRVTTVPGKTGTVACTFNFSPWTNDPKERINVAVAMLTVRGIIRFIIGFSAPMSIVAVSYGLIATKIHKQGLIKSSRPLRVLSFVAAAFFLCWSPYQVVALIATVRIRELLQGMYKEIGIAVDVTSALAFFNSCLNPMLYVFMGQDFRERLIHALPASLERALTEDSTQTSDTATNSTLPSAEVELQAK
FPR2, sequence (P25090 whole entry): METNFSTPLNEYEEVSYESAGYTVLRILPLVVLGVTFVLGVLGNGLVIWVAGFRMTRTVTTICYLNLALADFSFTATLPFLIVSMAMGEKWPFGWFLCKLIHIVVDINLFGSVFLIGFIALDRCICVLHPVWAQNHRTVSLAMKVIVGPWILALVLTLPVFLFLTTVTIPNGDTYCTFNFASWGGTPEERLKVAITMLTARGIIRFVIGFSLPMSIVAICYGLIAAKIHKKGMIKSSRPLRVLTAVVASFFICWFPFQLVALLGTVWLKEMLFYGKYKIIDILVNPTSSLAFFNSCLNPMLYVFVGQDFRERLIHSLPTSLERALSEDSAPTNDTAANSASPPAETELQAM

Compound | EC50 (FPR1) | EC50 (FPR2)
COCCN1CC(NC(=O)Nc2ccc(Cl)cc2)C(c2ccc(OC)cc2F)CC1=O (single isomer, unassigned; ent2) [Example 60, trans-ent2-1-(4-Chlorophenyl)-3-[4-(2-fluoro-4-methoxy-phenyl)-1-(2-methoxy-ethyl)-6-oxo-piperidin-3-yl]-urea] | 1 to 1000 nM | 1 to 1000 nM
COc1ccc(C2CC(=O)N(CC(F)F)CC2NC(=O)Nc2ccc(Cl)cc2)c(F)c1 (single isomer, unassigned; ent2) [Example 62, trans-ent2-1-(4-Chlorophenyl)-3-[1-(2,2-difluoro-ethyl)-4-(2-fluoro-4-methoxy-phenyl)-6-oxo-piperidin-3-yl]-urea] | 1 to 1000 nM | 1 to 1000 nM
COCCN1CC(NC(=O)Nc2ccc(Cl)cc2)C(c2ccc(F)cc2F)CC1=O (single isomer, unassigned; ent2) [Example 64, trans-ent2-1-(4-Chlorophenyl)-3-[4-(2,4-difluoro-phenyl)-1-(2-methoxy-ethyl)-6-oxo-piperidin-3-yl]-urea] | 1 to 1000 nM | 1 to 1000 nM
O=C(Nc1ccc(Cl)cc1)NC1CN(CC(F)F)C(=O)CC1c1ccc(F)cc1F (single isomer, unassigned; ent2) [Example 66, trans-ent2-1-(4-Chlorophenyl)-3-[1-(2,2-difluoro-ethyl)-4-(2,4-difluoro-phenyl)-6-oxo-piperidin-3-yl]-urea] | 1 to 1000 nM | 1 to 1000 nM
O=C1CC(c2ccc(F)cc2F)C(NC(=O)Nc2ccc(Cl)cc2)CN1 (single isomer, unassigned; ent2) [Example 68, trans-ent2-1-(4-Chlorophenyl)-3-[4-(2,4-difluoro-phenyl)-6-oxo-piperidin-3-yl]-urea] | 1 to 1000 nM | 1 to 1000 nM
COc1ccc(C2CC(=O)NCC2NC(=O)Nc2ccc(Cl)cc2)cc1 (single isomer, unassigned; ent2) [Example 77, trans-ent2-1-(4-chlorophenyl)-3-(4-(4-methoxyphenyl)-6-oxopiperidin-3-yl)urea] | 1 to 1000 nM | 1 to 1000 nM
O=C(Nc1ccc(Cl)cc1)NC1CNCCC1c1ccccc1 (single isomer, unassigned; ent2) [Example 81, trans-ent2-1-(4-chlorophenyl)-3-(4-phenylpiperidin-3-yl)urea] | 1 to 1000 nM | 1 to 1000 nM
O=C(Nc1ccc(Cl)cc1)NC1CN(C(=O)C2CC2)CCC1c1ccccc1 (single isomer, unassigned; ent2) [Example 84, trans-ent2-1-(4-chlorophenyl)-3-(1-(cyclopropanecarbonyl)-4-phenylpiperidin-3-yl)urea] | 1 to 1000 nM | 1 to 1000 nM
COc1ccc([C@@H]2CC(=O)N(C)C[C@H]2NC(=O)Nc2ccc(Cl)cc2)cc1 (stereo in doubt) [Example 7, rac-trans-1-(4-chlorophenyl)-3-(4-(4-methoxyphenyl)-1-methyl-6-oxopiperidin-3-yl)urea] | < 1 nM | < 1 nM
COc1ccc([C@H]2CC(=O)N(C)C[C@@H]2NC(=O)Nc2ccc(Cl)cc2)cc1 (stereo in doubt) [Example 10, trans-ent1-(4-chlorophenyl)-3-(4-(4-methoxyphenyl)-1-methyl-6-oxopiperidin-3-yl)urea] | < 1 nM | < 1 nM
COc1ccc([C@@H]2CC(=O)N(C)C[C@H]2NC(=O)Nc2ccc(Cl)cc2)cc1 (stereo in doubt) [Example 11, trans-ent2-(4-chlorophenyl)-3-(4-(4-methoxyphenyl)-1-methyl-6-oxopiperidin-3-yl)urea] | 1 to 1000 nM | 1 to 1000 nM
ent1-1-(4-chlorophenyl)-3-(4-(2-fluoro-4-methoxyphenyl)piperidin-3-yl)urea [Example 45] | 1 to 1000 nM | < 1 nM
